Source: ChEMBL document CHEMBL1201862, “PubChem BioAssay data set” (2004)
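The compound was tested at five concentrations on cells cultured in 96-well plates, with a 48-hour exposure period. Here, GI50 denotes the concentration required for 50% inhibition of growth.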 Calls of active or inactive are those of the source. Cut-off read from the data, not from the text of the source: active = GI50 up to about 1.1 µM and inactive = higher.

Columns and labels:
Assay in all cases: DTP human tumour cell line panel, 48 h
SNB-19 = test system: SNB-19
UACC-62 = test system: UACC-62
M14 = test system: M14
OVCAR-8 = test system: OVCAR-8
SN12C = test system: SN12C
CCRF-CEM = test system: CCRF-CEM
HCC 2998 = test system: HCC 2998
OVCAR-3 = test system: OVCAR-3
OVCAR-5 = test system: OVCAR-5
CAKI-1 = test system: CAKI-1
M19-MEL = test system: M19-MEL
UO-31 = test system: UO-31
KM12 = test system: KM12
IGROV-1 = test system: IGROV-1
HCT-15 = test system: HCT-15
LOX IMVI = test system: LOX IMVI
SNB-75 = test system: SNB-75
UACC-257 = test system: UACC-257
ACHN = test system: ACHN
XF498 = test system: XF498
EKVX = test system: EKVX
NCI-H23 = test system: NCI-H23
A549 = test system: A549
HOP-62 = test system: HOP-62
SK-OV-3 = test system: SK-OV-3
SK-MEL-2 = test system: SK-MEL-2
LXFL 529 = test system: LXFL 529
RPMI-8226 = test system: RPMI-8226
U-251 = test system: U-251
SK-MEL-5 = test system: SK-MEL-5
SF-539 = test system: SF-539
MOLT-4 = test system: MOLT-4
TK-10 = test system: TK-10
KM-20L2 = test system: KM-20L2
OVCAR-4 = test system: OVCAR-4
NCI-H460 = test system: NCI-H460
SK-MEL-28 = test system: SK-MEL-28
DMS-273 = test system: DMS-273
COLO 205 = test system: COLO 205
HT-29 = test system: HT-29
Malme-3M = test system: Malme-3M
A498 = test system: A498
SF-268 = test system: SF-268
SW-620 = test system: SW-620
DLD-1 = test system: DLD-1
SNB-78 = test system: SNB-78
786-0 = test system: 786-0
K562 = test system: K562
SF-295 = test system: SF-295
DMS-114 = test system: DMS-114
HCT-116 = test system: HCT-116
HOP-92 = test system: HOP-92
HOP-18 = test system: HOP-18
NCI/ADR-RES = test system: NCI/ADR-RES
NCI-H522 = test system: NCI-H522
HL-60 = test system: HL-60
NCI-H226 = test system: NCI-H226
MCF7 = test system: MCF7
RXF 393 = test system: RXF 393

Structure (SMILES): CCc1cccc(C(C)CC)c1NC(=O)CC1C(=O)Nc2ccccc2S1(=O)=O (centres undefined)
- GI50 (SNB-19): 13.4 µM (inactive)
- GI50 (UACC-62): 22.3 µM (inactive)
- GI50 (M14): 41.4 µM (inactive)
- GI50 (OVCAR-8): 4.22 µM (inactive)
- GI50 (SN12C): 18.4 µM (inactive)
- GI50 (CCRF-CEM): 5.22 µM (inactive)
- GI50 (HCC 2998): 6.17 µM (inactive)
- GI50 (OVCAR-3): 13.6 µM (inactive)
- GI50 (OVCAR-5): 70.1 µM (inactive)
- GI50 (CAKI-1): 15.4 µM (inactive)
- GI50 (M19-MEL): 26.9 µM (inactive)
- GI50 (UO-31): 34 µM (inactive)
- GI50 (KM12): 11.5 µM (inactive)
- GI50 (IGROV-1): 20.6 µM (inactive)
- GI50 (HCT-15): 13.3 µM
- GI50 (LOX IMVI): 6.49 µM (inactive)
- GI50 (SNB-75): 14.8 µM (inactive)
- GI50 (UACC-257): 42.3 µM (inactive)
- GI50 (ACHN): 23.6 µM (inactive)
- GI50 (XF498): > 100 µM (inactive)
- GI50 (EKVX): 7.05 µM (inactive)
- GI50 (NCI-H23): 7.45 µM (inactive)
- GI50 (A549): 24.8 µM (inactive)
- GI50 (HOP-62): 36.8 µM (inactive)
- GI50 (SK-OV-3): 43.2 µM (inactive)
- GI50 (SK-MEL-2): 64.6 µM (inactive)
- GI50 (LXFL 529): 11.2 µM (inactive)
- GI50 (RPMI-8226): 5.38 µM (inactive)
- GI50 (U-251): 40.3 µM (inactive)
- GI50 (SK-MEL-5): 45.9 µM (inactive)
- GI50 (SF-539): 21.5 µM (inactive)
- GI50 (MOLT-4): 11.8 µM (inactive)
- GI50 (TK-10): 28.7 µM (inactive)
- GI50 (KM-20L2): 25.2 µM (inactive)
- GI50 (OVCAR-4): 12.8 µM (inactive)
- GI50 (NCI-H460): 23.9 µM (inactive)
- GI50 (SK-MEL-28): 53.2 µM (inactive)
- GI50 (DMS-273): 13.6 µM (inactive)
- GI50 (COLO 205): 20.9 µM (inactive)
- GI50 (HT-29): 15.2 µM (inactive)
- GI50 (Malme-3M): 36.5 µM (inactive)
- GI50 (A498): 33.6 µM (inactive)
- GI50 (SF-268): 25.8 µM (inactive)
- GI50 (SW-620): 8.61 µM (inactive)
- GI50 (DLD-1): 13.6 µM (inactive)
- GI50 (SNB-78): 14.2 µM (inactive)
- GI50 (786-0): 15.4 µM (inactive)
- GI50 (K562): 4.95 µM (inactive)
- GI50 (SF-295): 25.1 µM (inactive)
- GI50 (DMS-114): 13.5 µM (inactive)

Structure (SMILES): CSCSCC(CO)NC(=O)/C=C\c1c(C)[nH]c(=O)[nH]c1=O (centres undefined)
- GI50 (SNB-19): 14.7 µM (inactive)
- GI50 (UACC-62): 22.4 µM (inactive)
- GI50 (OVCAR-8): 10 µM (inactive)
- GI50 (SN12C): 8.15 µM (inactive)
- GI50 (CCRF-CEM): 2.27 µM (inactive)
- GI50 (HCC 2998): 5.57 µM (inactive)
- GI50 (OVCAR-3): 1.79 µM (inactive)
- GI50 (OVCAR-5): 57.3 µM (inactive)
- GI50 (CAKI-1): 2.88 µM (inactive)
- GI50 (M19-MEL): 9.75 µM (inactive)
- GI50 (UO-31): 14.9 µM (inactive)
- GI50 (KM12): 12.7 µM (inactive)
- GI50 (IGROV-1): 23.7 µM (inactive)
- GI50 (HCT-15): 17.9 µM
- GI50 (LOX IMVI): 14.1 µM (inactive)
- GI50 (SNB-75): 16.3 µM (inactive)
- GI50 (UACC-257): 48.6 µM (inactive)
- GI50 (XF498): 1.61 µM (inactive)
- GI50 (EKVX): 16.1 µM (inactive)
- GI50 (NCI-H23): 17.7 µM (inactive)
- GI50 (A549): 77.1 µM (inactive)
- GI50 (HOP-62): 38.8 µM (inactive)
- GI50 (SK-OV-3): 11.1 µM (inactive)
- GI50 (SK-MEL-2): 14.2 µM (inactive)
- GI50 (HCT-116): 11.4 µM (inactive)
- GI50 (RPMI-8226): 51.5 µM (inactive)
- GI50 (U-251): 7.57 µM (inactive)
- GI50 (SK-MEL-5): 21.5 µM (inactive)
- GI50 (SF-539): 32.9 µM (inactive)
- GI50 (HOP-92): 0.838 µM (active)
- GI50 (MOLT-4): 7.74 µM (inactive)
- GI50 (HOP-18): 46.1 µM (inactive)
- GI50 (NCI/ADR-RES): 19 µM (inactive)
- GI50 (NCI-H522): 0.959 µM (active)
- GI50 (KM-20L2): 7.76 µM (inactive)
- GI50 (OVCAR-4): 1.23 µM (inactive)
- GI50 (NCI-H460): 12.2 µM (inactive)
- GI50 (SK-MEL-28): 28.6 µM (inactive)
- GI50 (DMS-273): 37.8 µM (inactive)
- GI50 (HL-60): 9.51 µM (inactive)
- GI50 (COLO 205): 8.79 µM (inactive)
- GI50 (HT-29): 19.3 µM (inactive)
- GI50 (NCI-H226): 35 µM (inactive)
- GI50 (Malme-3M): 8.18 µM (inactive)
- GI50 (A498): 23.6 µM (inactive)
- GI50 (SF-268): 7.64 µM (inactive)
- GI50 (SW-620): 15.7 µM (inactive)
- GI50 (MCF7): 2.19 µM (inactive)
- GI50 (DLD-1): 11.6 µM (inactive)
- GI50 (SNB-78): 34.4 µM (inactive)
- GI50 (K562): 5.2 µM (inactive)
- GI50 (RXF 393): 26.5 µM (inactive)
- GI50 (SF-295): 76.6 µM (inactive)
- GI50 (DMS-114): 5.56 µM (inactive)
